Target: CXCR7 (Homo sapiens (Human), UniProt P25106)
Assay: PathHunter CHO-K1 CXCR7 β-arrestin assay (agonistic activity)
Format: cell-based
Details: β-arrestin recruitment in PathHunter CHO-K1 CXCR7 β-arrestin cells, 90 minutes at 37° C., geometric mean values
In short: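 The enzyme-fragment complementation format pairs ProLink-tagged CXCR7 with EA–β-arrestin 2 in CHO-K1 cells, seeded at 5000/well for 24 h and serum-starved in OPTIMEM 3–4 h. Compounds were added in HBSS/20 mM HEPES/0.2% BSA for 90 min at 37 °C, followed by 1 h detection at room temperature and chemiluminescence read-out. EC50 is the geometric mean of several measurements.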

Sequence of CXCR7 (P25106 whole entry): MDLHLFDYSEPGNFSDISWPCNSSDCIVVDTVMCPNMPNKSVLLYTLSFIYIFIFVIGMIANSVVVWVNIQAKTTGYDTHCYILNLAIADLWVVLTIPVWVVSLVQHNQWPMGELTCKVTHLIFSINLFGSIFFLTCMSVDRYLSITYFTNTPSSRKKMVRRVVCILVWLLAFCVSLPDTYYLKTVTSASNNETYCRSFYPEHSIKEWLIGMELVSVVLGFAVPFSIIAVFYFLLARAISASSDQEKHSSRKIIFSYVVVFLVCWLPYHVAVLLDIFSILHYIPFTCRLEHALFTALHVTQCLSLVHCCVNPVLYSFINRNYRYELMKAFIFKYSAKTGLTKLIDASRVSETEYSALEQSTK
Sequence of CXCR7 (P32121 whole entry partner): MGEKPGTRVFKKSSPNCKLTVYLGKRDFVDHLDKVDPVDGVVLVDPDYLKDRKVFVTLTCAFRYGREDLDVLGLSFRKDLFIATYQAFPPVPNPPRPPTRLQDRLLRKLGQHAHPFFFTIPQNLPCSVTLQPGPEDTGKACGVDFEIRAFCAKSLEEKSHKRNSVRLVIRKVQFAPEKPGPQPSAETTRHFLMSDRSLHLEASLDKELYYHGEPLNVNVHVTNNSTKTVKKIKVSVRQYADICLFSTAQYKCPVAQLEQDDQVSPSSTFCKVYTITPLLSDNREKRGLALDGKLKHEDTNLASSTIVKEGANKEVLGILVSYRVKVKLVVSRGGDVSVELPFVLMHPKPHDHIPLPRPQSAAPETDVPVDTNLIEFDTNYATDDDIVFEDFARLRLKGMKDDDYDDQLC

Row | SMILES | EC50 [nM]
1 | CN(C)CCN(Cc1ncccc1Cl)C(=O)CNc1cccc2c1N(C)CCN(CC1CC1)C2=O [Example 45, N-(3-Chloro-pyridin-2-ylmethyl)-2-(4-cyclopropylmethyl-1-methyl-5-oxo-2,3,4,5-tetrahydro-1H-benzo[e][1,4]diazepin-9-ylamino)-N-(2-dimethylamino-ethyl)-acetamide] | 50
2 | CC(C)NCCN(Cc1ccccc1C(F)(F)F)C(=O)CNc1cccc2c1N(C)CCN(CC1CC1)C2=O [Example 46, 2-(4-Cyclopropylmethyl-1-methyl-5-oxo-2,3,4,5-tetrahydro-1H-benzo[e][1,4]diazepin-9-ylamino)-N-(2-isopropylamino-ethyl)-N-(2-trifluoromethyl-benzyl)-acetamide] | 5
3 | CCN1CCN(CC)c2c(NCC(=O)N(CCN3CCOCC3)Cc3ncccc3C(F)(F)F)cccc2C1=O [Example 47, 2-(1,4-Diethyl-5-oxo-2,3,4,5-tetrahydro-1H-benzo[e][1,4]diazepin-9-ylamino)-N-(2-morpholin-4-yl-ethyl)-N-(3-trifluoromethyl-pyridin-2-ylmethyl)-acetamide] | 430
4 | CCN1CCN(CC)c2c(NCC(=O)N(CCN3CCCC3)Cc3ncccc3C(F)(F)F)cccc2C1=O [Example 48, 2-(1,4-Diethyl-5-oxo-2,3,4,5-tetrahydro-1H-benzo[e][1,4]diazepin-9-ylamino)-N-(2-pyrrolidin-1-yl-ethyl)-N-(3-trifluoromethyl-pyridin-2-ylmethyl)-acetamide] | 47
5 | CN(C)CCN(Cc1ccccc1C(F)(F)F)C(=O)CNc1cccc2c1N(C)CCN(CC1CC1)C2 [Example 49, 2-(4-Cyclopropylmethyl-1-methyl-2,3,4,5-tetrahydro-1H-benzo[e][1,4]diazepin-9-ylamino)-N-(2-dimethylamino-ethyl)-N-(2-trifluoromethyl-benzyl)-acetamide] | 2
6 | CC(C)N(CCN(Cc1ccccc1C(F)(F)F)C(=O)CNc1cccc2c1N(C)CCN(CC1CC1)C2)C(=O)OC(C)(C)C [Example 50, {2-[[2-(4-Cyclopropylmethyl-1-methyl-2,3,4,5-tetrahydro-1H-benzo[e][1,4]diazepin-9-ylamino)-acetyl]-(2-trifluoromethyl-benzyl)-amino]-ethyl}-isopropyl-carbamic acid tert-butyl ester] | 340
7 | CN1CCN(CC2CC2)Cc2cccc(NCC(=O)N(CCN3CCCC3)Cc3ncccc3C(F)(F)F)c21 [Example 51, 2-(4-Cyclopropylmethyl-1-methyl-2,3,4,5-tetrahydro-1H-benzo[e][1,4]diazepin-9-ylamino)-N-(2-pyrrolidin-1-yl-ethyl)-N-(3-trifluoromethyl-pyridin-2-ylmethyl)-acetamide] | 1
8 | CC(C)NCCN(Cc1ccccc1C(F)(F)F)C(=O)CNc1cccc2c1N(C)CCN(CC1CC1)C2 [Example 52, 2-(4-Cyclopropylmethyl-1-methyl-2,3,4,5-tetrahydro-1H-benzo[e][1,4]diazepin-9-ylamino)-N-(2-isopropylamino-ethyl)-N-(2-trifluoromethyl-benzyl)-acetamide] | 1
9 | CCN1CCOc2c(NCC(=O)N(CCNC(C)C)Cc3ccccc3C(F)(F)F)cccc2C1=O [Example 56, 2-(4-Ethyl-5-oxo-2,3,4,5-tetrahydro-benzo[f][1,4]oxazepin-9-ylamino)-N-(2-isopropylamino-ethyl)-N-(2-trifluoromethyl-benzyl)-acetamide] | 16
10 | CCN1CCOc2c(NCC(=O)N(CCN3CCCC3)Cc3ncccc3C(F)(F)F)cccc2C1=O [Example 57, 2-(4-Ethyl-5-oxo-2,3,4,5-tetrahydro-benzo[f][1,4]oxazepin-9-ylamino)-N-(2-pyrrolidin-1-yl-ethyl)-N-(3-trifluoromethyl-pyridin-2-ylmethyl)-acetamide] | 60
11 | CCN1CCOc2c(NCC(=O)N(CCN(C)C)Cc3ncccc3C(F)(F)F)cccc2C1=O [Example 58, N-(2-Dimethylamino-ethyl)-2-(4-ethyl-5-oxo-2,3,4,5-tetrahydro-benzo[f][1,4]oxazepin-9-ylamino)-N-(3-trifluoromethyl-pyridin-2-ylmethyl)-acetamide] | 74
12 | CCN1CCOc2c(NCC(=O)N(CCN3CCCC3)Cc3ncccc3Cl)cccc2C1=O [Example 59, N-(3-Chloro-pyridin-2-ylmethyl)-2-(4-ethyl-5-oxo-2,3,4,5-tetrahydro-benzo[f][1,4]oxazepin-9-ylamino)-N-(2-pyrrolidin-1-yl-ethyl)-acetamide] | 260
13 | CCN1CCOc2c(NCC(=O)N(CCN(C)C)Cc3ncccc3Cl)cccc2C1=O [Example 60, N-(3-Chloro-pyridin-2-ylmethyl)-N-(2-dimethylamino-ethyl)-2-(4-ethyl-5-oxo-2,3,4,5-tetrahydro-benzo[f][1,4]oxazepin-9-ylamino)-acetamide] | 260
14 | CN(C)CCN(Cc1ccccc1C(F)(F)F)C(=O)CNc1cccc2c1OCCN(CC1CC1)C2=O [Example 61, 2-(4-Cyclopropylmethyl-5-oxo-2,3,4,5-tetrahydro-benzo[f][1,4]oxazepin-9-ylamino)-N-(2-dimethylamino-ethyl)-N-(2-trifluoromethyl-benzyl)-acetamide] | 9
15 | CC(C)NCCN(Cc1ccccc1C(F)(F)F)C(=O)CNc1cccc2c1OCCN(CC1CC1)C2=O [Example 62, 2-(4-Cyclopropylmethyl-5-oxo-2,3,4,5-tetrahydro-benzo[f][1,4]oxazepin-9-ylamino)-N-(2-isopropylamino-ethyl)-N-(2-trifluoromethyl-benzyl)-acetamide] | 5
16 | CC(C)(C)NCCN(Cc1ccccc1C(F)(F)F)C(=O)CNc1cccc2c1OCCN(CC1CC1)C2=O [Example 63, N-(2-tert-Butylamino-ethyl)-2-(4-cyclopropylmethyl-5-oxo-2,3,4,5-tetrahydro-benzo[f][1,4]oxazepin-9-ylamino)-N-(2-trifluoromethyl-benzyl)-acetamide] | 2
17 | O=C(CNc1cccc2c1OCCN(CC1CC1)C2=O)N(CCN1CCCC1)Cc1ncccc1C(F)(F)F [Example 64, 2-(4-Cyclopropylmethyl-5-oxo-2,3,4,5-tetrahydro-benzo[f][1,4]oxazepin-9-ylamino)-N-(2-pyrrolidin-1-yl-ethyl)-N-(3-trifluoromethyl-pyridin-2-ylmethyl)-acetamide] | 7
18 | O=C(CNc1cccc2c1OCC(=O)N(CC1CC1)C2)N(CCN1CCCC1)Cc1ncccc1C(F)(F)F [Example 65, 2-(4-cyclopropylmethyl-3-oxo-2,3,4,5-tetrahydro-benzo[f][1,4]oxazepin-9-ylamino)-N-(2-pyrrolidin-1-yl-ethyl)-N-(3-trifluoromethyl-pyridin-2-ylmethyl)-acetamide] | 18
19 | CC(C)(C)NCCN(Cc1ccccc1C(F)(F)F)C(=O)CNc1cccc2c1OCC(=O)N(CC1CC1)C2 [Example 66, N-(2-tert-butylamino-ethyl)-2-(4-cyclopropylmethyl-3-oxo-2,3,4,5-tetrahydro-benzo[f][1,4]oxazepin-9-ylamino)-N-(2-trifluoromethyl-benzyl)-acetamide] | 18
20 | CN(C)CCN(Cc1ccccc1C(F)(F)F)C(=O)CNc1cccc2c1OCC(=O)N(CC1CC1)C2 [Example 67, 2-(4-Cyclopropylmethyl-3-oxo-2,3,4,5-tetrahydro-benzo[f][1,4]oxazepin-9-ylamino)-N-(2-dimethylamino-ethyl)-N-(2-trifluoromethyl-benzyl)-acetamide] | 37
21 | CC(C)NCCN(Cc1ccccc1C(F)(F)F)C(=O)CNc1cccc2c1OCC(=O)N(CC1CC1)C2 [Example 68, 2-(4-Cyclopropylmethyl-3-oxo-2,3,4,5-tetrahydro-benzo[f][1,4]oxazepin-9-ylamino)-N-(2-isopropylamino-ethyl)-N-(2-trifluoromethyl-benzyl)-acetamide] | 15
22 | CCN1CCOc2c(cccc2NCC(=O)N(CCN(C(=O)OC(C)(C)C)C(C)C)Cc2ccccc2C(F)(F)F)C1 [Example 69, {2-[[2-(4-Ethyl-2,3,4,5-tetrahydro-benzo[f][1,4]oxazepin-9-ylamino)-acetyl]-(2-trifluoromethyl-benzyl)-amino]-ethyl}-isopropyl-carbamic acid tert-butyl ester] | 430
23 | CCN1CCOc2c(cccc2NCC(=O)N(CCNC(C)(C)C)Cc2ccccc2C(F)(F)F)C1 [Example 70, N-(2-tert-Butylamino-ethyl)-2-(4-ethyl-2,3,4,5-tetrahydro-benzo[f][1,4]oxazepin-9-ylamino)-N-(2-trifluoromethyl-benzyl)-acetamide] | 4
24 | CCN1CCOc2c(cccc2NCC(=O)N(CCNC(C)C)Cc2ccccc2C(F)(F)F)C1 [Example 71, 2-(4-Ethyl-2,3,4,5-tetrahydro-benzo[f][1,4]oxazepin-9-ylamino)-N-(2-isopropylamino-ethyl)-N-(2-trifluoromethyl-benzyl)-acetamide] | 4
25 | CCN1CCOc2c(cccc2NCC(=O)N(CCN(C)C)Cc2ncccc2C(F)(F)F)C1 [Example 72, N-(2-Dimethylamino-ethyl)-2-(4-ethyl-2,3,4,5-tetrahydro-benzo[f][1,4]oxazepin-9-ylamino)-N-(3-trifluoromethyl-pyridin-2-ylmethyl)-acetamide] | 6
26 | CCN1CCOc2c(cccc2NCC(=O)N(CCN(C)C)Cc2ncccc2C)C1 [Example 73, N-(2-Dimethylamino-ethyl)-2-(4-ethyl-2,3,4,5-tetrahydro-benzo[f][1,4]oxazepin-9-ylamino)-N-(3-methyl-pyridin-2-ylmethyl)-acetamide] | 59
27 | CCN1CCOc2c(cccc2NCC(=O)N(CCN2CCCC2)Cc2ncccc2C(F)(F)F)C1 [Example 74, 2-(4-Ethyl-2,3,4,5-tetrahydro-benzo[f][1,4]oxazepin-9-ylamino)-N-(2-pyrrolidin-1-yl-ethyl)-N-(3-trifluoromethyl-pyridin-2-ylmethyl)-acetamide] | 5
